≈ marks a conversion by molar mass, not a printed value.
Assays:
Staphylococcus aureus [1] = assay: Antibacterial activity against levofloxacin-resistant Staphylococcus aureus assessed as inhibition of bacterial growth by CLSI-based assay; assay type: functional
Streptococcus pneumoniae = assay: Antibacterial activity against Levofloxacin-nonsusceptible Streptococcus pneumoniae assessed as inhibition of bacterial growth by CLSI-based assay; assay type: functional
Escherichia coli = assay: Antibacterial activity against Levofloxacin-nonsusceptible Escherichia coli assessed as inhibition of bacterial growth by CLSI-based assay; assay type: functional
Staphylococcus aureus [2] = assay: Antibacterial activity against Staphylococcus aureus 456 infected in neutropenic BALB/c mouse model assessed as reduction in lung bacterial load at 1.56 to 400 mg/kg, sc administered every 6 hr and measured after 24 hrs by CLSI-based assay (reference value: 5.6 to 6.3 log10 CFU); assay type: functional; details: dose 1.56-400 mg/kg, pooled result: one value given for 6 cell lines, strains, targets or settings
[3] = Binding affinity to recombinant Clostridium difficile 630 DNA polymerase IIIC expressed in Escherichia coli Rosetta DE3pLysS cells assessed as inhibition constant incubated for 20 mins; design: species or system Clostridioides difficile 630
Clostridioides difficile [4] = assay: Antibacterial activity against Clostridium difficile clinical isolates assessed as inhibition of bacterial growth incubated for 48 hrs by CLSI-based assay; assay type: functional
Clostridioides difficile [5] = assay: Antibacterial activity against Clostridium difficile clinical isolates assessed as inhibition of bacterial growth; assay type: functional
[6] = Drug absorption in Syrian hamster infected with Clostridioides difficile at 75 mg/kg, po by LC-MS analysis; assay type: ADME, organism-based, Mesocricetus auratus; details: in vivo, read-out: Drug absorption
Staphylococcus aureus [7] = assay: Antibacterial activity against Staphylococcus aureus assessed as inhibition of bacterial growth; assay type: functional
Clostridioides difficile [8] = assay: Antibacterial activity against Clostridium difficile clinical isolates assessed as inhibition of bacterial growth incubated for 44 hrs by CLSI-based broth microdilution assay; assay type: functional
Neisseria gonorrhoeae = assay: Antibacterial activity against Neisseria gonorrhoeae ATCC 49226 assessed as inhibition of bacterial growth by agar dilution method; assay type: functional
Mycoplasma genitalium = assay: Antibacterial activity against Mycoplasma genitalium assessed as inhibition of bacterial growth; assay type: functional; details: Mycoplasmoides genitalium
Chlamydia trachomatis = assay: Antibacterial activity against Chlamydia trachomatis assessed as inhibition of bacterial growth; assay type: functional

O=c1ccc2ncc(=O)n3c2n1C[C@H]3CN1CCC(NCc2cc3c(cn2)OCCC3)CC1 [GEPOTIDACIN]
MIC90 (Staphylococcus aureus [1]): 0.5 µg/mL (≈ 1.11 µM)
MIC90 (Streptococcus pneumoniae): 0.5 µg/mL (≈ 1.11 µM)
MIC90 (Escherichia coli): 0.5 µg/mL (≈ 1.11 µM)
Activity (Staphylococcus aureus [2]): 1.4 log10CFU

O=c1[nH]c(NCc2ccc(Cl)c(Cl)c2)nc2ncn(CCN3CCOCC3)c12 [IBEZAPOLSTAT]
Ki [3]: 325 nM
MIC50 (Clostridioides difficile [4]): 2 µg/mL (≈ 4.72 µM)
MIC (Clostridioides difficile [5]): 1 µg/mL (≈ 2.36 µM)
Fa [6]: 5%

Cc1ncc([N+](=O)[O-])n1CCO [METRONIDAZOLE]
MIC50 (Clostridioides difficile [4]): 1 µg/mL (≈ 5.84 µM)
MIC (Clostridioides difficile [5]): 0.15 µg/mL (≈ 0.876 µM)

Cn1cc(NC(=O)c2cc(NC(=O)c3ccc(/C=C/c4cnc5ccccc5c4)cc3)cn2C)cc1C(=O)NCCN1CCOCC1 [MGB-BP-3]
MIC80 (Staphylococcus aureus [7]): < 0.2 µM

CN[C@H](CC(C)C)C(=O)N[C@H]1C(=O)N[C@@H](CC(N)=O)C(=O)N[C@H]2C(=O)N[C@H]3C(=O)N[C@H](C(=O)N[C@H](C(=O)O)c4cc(O)cc(O)c4-c4cc3ccc4O)[C@H](O)c3ccc(c(Cl)c3)Oc3cc2cc(c3O[C@@H]2O[C@H](CO)[C@@H](O)[C@H](O)[C@H]2O[C@H]2C[C@](C)(N)[C@H](O)[C@H](C)O2)Oc2ccc(cc2Cl)[C@H]1O [VANCOMYCIN]
MIC (Clostridioides difficile [8]): 0.25 µg/mL (≈ 0.173 µM)
MIC50 (Clostridioides difficile [4]): 1 µg/mL (≈ 0.69 µM)
MIC (Clostridioides difficile [5]): 0.25 µg/mL (≈ 0.173 µM)

C[C@@H]1CN2c3c(cc4c(N5C(=O)OC[C@@H]5C)noc4c3F)CC3(C(=O)NC(=O)NC3=O)[C@H]2[C@H](C)O1 [ZOLIFLODACIN]
MIC90 (Neisseria gonorrhoeae): 0.125 µg/mL (≈ 0.256 µM)
MIC (Mycoplasma genitalium): < 1 µg/mL
MIC (Chlamydia trachomatis): 0.5 µg/mL (≈ 1.03 µM)
